This is an account of results in PMC8117066 (Behavioural brain research, 2021).

Substitutions are numbered along the chain they refer to. Numbers in names are those of the source.

The target in data set [1] is Dopamine transporter (DAT) (Mus musculus, UniProt Q61327, T53A). The data set can be described thus: inhibition of [3H]DA uptake in mouse striatal synaptosomes. It counts as biochemical.
For data set [2], the target named is Dopamine transporter (DAT) (Mus musculus, UniProt Q61327). The description is as above. Type of data set: biochemical.
Substrate in the data set “[3H]DA uptake kinetics”: NCCc1ccc(O)c(O)c1
The data set can be described thus: [3H]DA uptake kinetics. It counts as biochemical, Mus musculus.

Chain of Dopamine transporter (DAT) (Mus musculus, UniProt Q61327, T53A) (Q61327 whole entry T53A): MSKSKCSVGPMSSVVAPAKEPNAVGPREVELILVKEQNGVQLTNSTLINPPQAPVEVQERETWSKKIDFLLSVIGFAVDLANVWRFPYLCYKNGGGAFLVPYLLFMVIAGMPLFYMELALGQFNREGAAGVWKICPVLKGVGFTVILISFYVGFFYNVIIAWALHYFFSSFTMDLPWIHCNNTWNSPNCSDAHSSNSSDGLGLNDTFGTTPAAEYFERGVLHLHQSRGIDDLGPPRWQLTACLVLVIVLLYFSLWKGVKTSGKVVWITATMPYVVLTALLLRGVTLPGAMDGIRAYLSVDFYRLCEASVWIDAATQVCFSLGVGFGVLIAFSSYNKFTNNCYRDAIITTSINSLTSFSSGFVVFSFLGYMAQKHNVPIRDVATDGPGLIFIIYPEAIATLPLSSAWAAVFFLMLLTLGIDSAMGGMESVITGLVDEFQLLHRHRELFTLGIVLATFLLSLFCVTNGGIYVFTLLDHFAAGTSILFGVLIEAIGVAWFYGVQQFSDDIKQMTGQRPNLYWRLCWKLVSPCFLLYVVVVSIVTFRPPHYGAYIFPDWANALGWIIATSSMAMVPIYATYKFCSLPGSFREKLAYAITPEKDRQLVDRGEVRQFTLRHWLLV

For `CN[C@@H](C)Cc1ccccc1` [METH], the IC50 – broadly, the concentration needed to halve the response being measured – in data set [1] came to 262 ± 25 nM; in data set [2] it was 280 ± 40 nM. `CC(N)Cc1ccccc1` (centres unmarked) [amphetamine]: the IC50 in data set [1] came out at 198 ± 68 nM; in data set [2] it was 183 ± 23 nM. Take `COC(=O)[C@H]1[C@@H](OC(=O)c2ccccc2)C[C@@H]2CC[C@H]1N2C` [cocaine]: the IC50 in data set [1] is 1270 ± 348 nM; in data set [2], 268 ± 58 nM.

B1: Dopamine transporter (DAT) (Mus musculus) (protein)
chain: MSKSKCSVGPMSSVVAPAKEPNAVGPREVELILVKEQNGVQLTNSTLINPPQTPVEVQERETWSKKIDFLLSVIGFAVDLANVWRFPYLCYKNGGGAFLVPYLLFMVIAGMPLFYMELALGQFNREGAAGVWKICPVLKGVGFTVILISFYVGFFYNVIIAWALHYFFSSFTMDLPWIHCNNTWNSPNCSDAHSSNSSDGLGLNDTFGTTPAAEYFERGVLHLHQSRGIDDLGPPRWQLTACLVLVIVLLYFSLWKGVKTSGKVVWITATMPYVVLTALLLRGVTLPGAMDGIRAYLSVDFYRLCEASVWIDAATQVCFSLGVGFGVLIAFSSYNKFTNNCYRDAIITTSINSLTSFSSGFVVFSFLGYMAQKHNVPIRDVATDGPGLIFIIYPEAIATLPLSSAWAAVFFLMLLTLGIDSAMGGMESVITGLVDEFQLLHRHRELFTLGIVLATFLLSLFCVTNGGIYVFTLLDHFAAGTSILFGVLIEAIGVAWFYGVQQFSDDIKQMTGQRPNLYWRLCWKLVSPCFLLYVVVVSIVTFRPPHYGAYIFPDWANALGWIIATSSMAMVPIYATYKFCSLPGSFREKLAYAITPEKDRQLVDRGEVRQFTLRHWLLV
On to B1, for which the Km (usually the concentration of substrate that gives half-maximal velocity) in data set [3H]DA uptake kinetics was 0.0778 ± 0.003009 µM.

B2: Dopamine transporter (DAT) (Mus musculus; T53A) (protein)
chain: B1 chain with T53A
Turning to B2, the Michaelis-Menten constant (Km) in data set [3H]DA uptake kinetics came to 0.07117 ± 0.006766 µM.
